# Laboratory results from article PMC7998250, “Temperate Zone Plant Natural Products—A Novel Resource for Activity against Tropical Parasitic Diseases” (Pharmaceuticals, 2021).
# Like-named read-outs stand apart in the source and are kept apart here.
# Experiments:
# [1] = system: T. brucei bloodstream form; assay: Initial screen, T. brucei bloodstream form, Alamar Blue; assay type: cell-based, Trypanosoma brucei brucei; conditions: for initial hit against T. brucei: growth reduced by ≥50%; for inhibition of growth at 2 µM / activity at 2 µM: Trypanosoma brucei; for inhibition of growth at 2 µM: read-out: initial hit T.b
# How it was run: (§1)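 Bloodstream-form T. evansi Antat 3/3 and T. brucei Lister 427 were grown in HMI-11 with 10% FBS at 37 °C. Parasites were plated at 1×10^5 cells/mL with compound at 1 μM (T. evansi) or 2 μM (T. brucei) for 48 h, and growth was read by Alamar Blue relative to 1% DMSO controls (n = 6).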
# T. brucei = assay: Concentration-response EC50, T. brucei; assay type: cell-based, Trypanosoma brucei brucei; conditions: for EC50: 48 h; for selectivity index (HepG2 CC50 / T. brucei EC50): preliminary selectivity against HepG2
# From the text: (§3) Initial hits from the parasite panel screen were taken forward in log concentration versus normalised response assays to estimate the half maximal effective concentration (EC50) in hit species as well as the half maximal cytotoxic concentrations (CC50) in the human hepatoma cell line HepG2 as a preliminary test for selectivity. Using CC50/EC50 to define the selectivity index (SI), the selectivity for each compound in a defined species compared to a human cell line was estimated and compared to the EC50 (Figure 3).
# (§4) EC50 values were determined by serial two-fold dilution of each compound in 96 well plates. Culture conditions and viability assays were as stated for the initial screen, with some exceptions. L. mexicana and L. donovani axenic amastigotes were seeded at 2 × 10^6 cell/s mL, T. brucei and T. evansi were seeded at 2 × 10^5 cells/mL. For cytotoxicity studies, HepG2 cells were seeded at 1 × 10^5 cells/mL, incubated for 48 h and viability was assessed using the Alamar Blue assay [66, 67]. […] Normalised growth and viability data (compared to untreated controls) were plotted against Log10 concentration to estimate EC50 in GraphPad (Prism v6).
# [2] = Cytotoxicity CC50, HepG2, Alamar Blue; conditions: human
# How it was run: (§2)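 Human hepatoma cells seeded at 1 × 10^5 cells/mL with two-fold serial compound dilutions, incubated 48 h at 37 °C, 5% CO2 in DMEM/10% FBS. Viability read by Alamar Blue. CC50 estimated from viability normalised to untreated controls versus log concentration.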
# HepG2 cells [3] = assay: Cytotoxicity CC50, HepG2, Alamar Blue; conditions: 48 h
# How it was run: as §2
# [4] = system: P. falciparum Dd2Luc intraerythrocytic trophozoites; assay: Initial screen, intraerythrocytic P. falciparum, Malaria SYBR-Green I fluorescence assay; assay type: cell-based, Plasmodium falciparum
# How it was run: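 L. mexicana axenic amastigotes at 1 × 10^6 cells/mL exposed 72 h to compounds at 2 μM, growth read by Alamar Blue; P. falciparum trophozoites at 0.5% parasitaemia, 2% haematocrit, 48 h at 2 μM, SYBR-Green I read-out. Growth normalised to 1% DMSO; hits ≥50% growth reduction.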
# [5] = system: T. evansi bloodstream form; assay: Initial screen, T. evansi bloodstream form, Alamar Blue; assay type: cell-based, Trypanosoma evansi
# How it was run: as §1
# [6] = system: L. mexicana axenic amastigotes; assay: Initial screen, L. mexicana axenic amastigotes, Alamar Blue; assay type: cell-based, Leishmania mexicana
# How it was run: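 Purified temperate plant natural products from a commercial library (1 mg/mL in DMSO) were tested against Leishmania mexicana axenic amastigotes at a final 2 μM. Parasites were seeded at 1 × 10^6 cells/mL in 96-well plates containing 200 μL culture and incubated 72 h. Growth was measured by Alamar Blue and normalised to DMSO controls (1% v/v), with triplicates over two biological replicates (n = 6).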
# P. falciparum 3D7 = assay: Concentration-response EC50, P. falciparum 3D7; assay type: cell-based; conditions: Plasmodium falciparum, 3D7, read-out: P. falciparum 3D7 EC50
# From the text: This is not surprising as the rate of kill is a result of the mechanism of cell death and, given their structural similarity, these three bisobolane sesquiterpene glycosides likely share the same target(s), albeit with some differences in affinity. The rate of kill, relatively, falls between that of atovaquone and dihydroartemisinin and is more similar to that of chloroquine.
# P. falciparum Dd2Luc [7] = assay: Concentration-response EC50, P. falciparum Dd2Luc; assay type: cell-based, Plasmodium falciparum; conditions: Plasmodium falciparum, 48 h, read-out: P. falciparum Dd2Luc EC50, intraerythrocytic, 48 h
# From the text: as §3, §4
# T. evansi = assay: Concentration-response EC50, T. evansi; assay type: cell-based; conditions: Trypanosoma evansi, 48 h, read-out: T. evansi EC50
# From the text: as §3, §4
# [8] = system: L. mexicana axenic amastigotes; assay: Concentration-response EC50, L. mexicana axenic amastigotes (WT); assay type: cell-based, Leishmania mexicana; conditions: read-out: L. mexicana EC50; axenic amastigotes, 72 h
# [9] = system: activated monocyte cell line (THP-1); assay: Cytotoxicity CC50, differentiated THP-1, Alamar Blue; assay type: cell-based, human; conditions: differentiated THP-1, 48 h; read-out: THP1 CC50
# From the text: The four lanosterone-like sterols derived from the Noble Fir Abies procera (700022, 700107, 700136) and the Grand Fir Abies grandis (700240) were the only initial compounds taken forward for L. mexicana due to their nanomolar activity and apparent low cytotoxicity (Figure 3a). […] Understanding the impact of the ring-opened lactone head group in this compound compared to the other three warrants further analysis in exploring their structure-activity relationships. These four sterols were also tested for growth inhibitory activity against L. donovani axenic amastigotes. […] As Leishmania spp. amastigotes typically reside with macrophages, further cytotoxicity assays with these sterols were performed against an activated monocyte cell line (THP-1) (Figure 4b). […]
# HepG2 cells [10] = system: HepG2 cells; set-up: method as in PMID 31617221; conditions: cited from earlier work
# P. falciparum Dd2Luc [11] = system: P. falciparum Dd2Luc; set-up: method as in PMID 27999014; conditions: control compounds; cited from earlier work
# [12] = system: P. falciparum NF54 strain; set-up: method as in PMID 29896963; conditions: drug sensitive NF54 strain; cited from earlier work
# T. b. rhodesiense = system: T. b. rhodesiense; set-up: method as in PMID 29896963; conditions: cited from earlier work
# [13] = Trypanosoma brucei, bloodstream form, read-out: T. brucei EC50
# [14] = Plasmodium falciparum, 48 h, read-out: %growth P. falciparum, mean % growth compared to a normalised control with same concentration of DMSO solvent, initial screen
# [15] = Leishmania mexicana, read-out: mean % growth, L. mexicana, initial screen, compared to a normalised control with same concentration of DMSO solvent
# [16] = initial screen, compared to a normalised control with same concentration of DMSO solvent, read-out: mean % growth, T. b. brucei
# [17] = Plasmodium falciparum, 48 h, read-out: mean % growth, P. falciparum, initial screen, compared to a normalised control with same concentration of DMSO solvent
# [18] = initial screen, compared to a normalised control with same concentration of DMSO solvent
compound,measurement,setting,value
CC(=O)OC1C(C)OC(OC2C(OC(=O)C3CC[C@@H]4[C@H](C3)OC3(CC(OC(=O)/C=C/c5ccccc5)[C@@H](C)CO3)C4(O)CO)OC(C)C(O)C2OC(C)=O)C(O)C1O (stereo partly drawn) [Compound 700035],initial hit against T. brucei,[1]; 2 μM,initial hits
same,inhibition of growth at 2 µM,"[1]; 2 μM, x = initial hit",> 50%
same,EC50,T. brucei; [13],350 nM
same,EC50,"T. brucei; bloodstream form, read-out: T. brucei EC50",360 nM
same,CC50 at 48 h,"[2]; pH 7, HepG2 CC50, 48 h",15200 nM
same,CC50,HepG2 cells [3]; read-out: HepG2 CC50,15000 nM
same,activity at 2 µM,[4]; [14],90.1%
same,activity at 1 µM,"[5]; Trypanosoma evansi, mean % growth compared to a normalised control with same concentration of DMSO solvent, initial screen, read-out: % growth T. evansi",105%
CC(=O)OC1C(O)C(C)OC(OC2C(OC(=O)C3CC[C@@H]4[C@H](C3)OC3(CC(OC(=O)/C=C/c5ccccc5)[C@@H](C)CO3)C43CO3)OC(CO)C(O)C2O)C1O (stereo partly drawn) [Compound 700046],activity at 2 µM,"[6]; Leishmania mexicana, read-out: % growth L. mexicana, mean % growth compared to a normalised control with same concentration of DMSO solvent, initial screen",83.4%
same,EC50,P. falciparum 3D7,34 nM
same,EC50,P. falciparum Dd2Luc [7],56 nM
same,initial hit against T. brucei,[1]; 2 μM,initial hits
same,activity at 2 µM,"[1]; read-out: % growth T. b. brucei, mean % growth compared to a normalised control with same concentration of DMSO solvent, initial screen",5.6%
same,inhibition of growth at 2 µM,[1],> 50%
same,EC50,T. evansi,118 nM
same,EC50,"T. brucei; Trypanosoma brucei, read-out: T. brucei EC50, bloodstream form, 48 h",180 nM
same,selectivity index (HepG2 CC50 / T. brucei EC50),T. brucei,> 10
same,initial hit against P. falciparum,"[4]; 2 μM, growth reduced by ≥50%",initial hits
same,activity at 2 µM,[4]; [14],9.8%
same,inhibition of growth at 2 µM,"[4]; Plasmodium falciparum, 48 h, read-out: initial hit P.f",> 50%
same,activity at 1 µM,"[5]; Trypanosoma evansi, read-out: % growth T. evansi, mean % growth compared to a normalised control with same concentration of DMSO solvent, initial screen",2.9%
same,inhibition of growth at 1 µM,"[5]; Trypanosoma evansi, read-out: initial hit T.e",> 50%
CC1(C)OC2CC(=O)C=CC2(c2cc(=O)c3c(O)cc(O)cc3o2)O1 (stereo not drawn) [Compound 700585],activity at 2 µM,[6]; [15],78%
same,initial hit against T. brucei,[1]; 2 μM,initial hits
same,activity at 2 µM,[1]; [16],40.8%
same,inhibition of growth at 2 µM,"[1]; 2 μM, x = initial hit",> 50%
same,EC50,T. brucei; [13],430 nM
same,selectivity index (HepG2 CC50 / T. brucei EC50),T. brucei,> 10
same,CC50 at 48 h,"[2]; pH 7, HepG2 CC50",< 10000 nM
same,CC50,"HepG2 cells [3]; human, pH 7",5300 nM
same,activity at 2 µM,[4]; [17],95.2%
COC(=O)C1=COC(O)C2C1CC(OC(=O)/C=C/c1ccc(O)cc1)C2C (stereo not drawn) [Compound 701145],activity at 2 µM,[6]; [15],48.9%
same,initial hit against T. brucei,[1]; 2 μM,initial hits
same,activity at 2 µM,[1]; [16],3.4%
same,inhibition of growth at 2 µM,"[1]; 2 μM, x = initial hit",> 50%
same,EC50,T. brucei; [13],520 nM
same,CC50 at 48 h,"[2]; pH 7, HepG2 CC50",27800 nM
same,CC50,"HepG2 cells [3]; human, pH 7",28000 nM
same,activity at 2 µM,[4]; [17],96%
same,activity at 1 µM,"[5]; Trypanosoma evansi, initial screen, compared to a normalised control with same concentration of DMSO solvent, read-out: mean % growth, T. evansi",118%
C=C1C(=O)OC2CC(C)C3C=CC(=O)C3(C)C(OC(C)=O)C12 (stereo not drawn) [Compound 701154],EC50,[8],950 nM
same,initial hit against L. mexicana,"[6]; 2 μM, growth inhibited by ≥80%",initial hits
same,inhibition of growth at 2 µM,"[6]; Leishmania mexicana, read-out: initial hit L.m",> 80%
same,"mean % growth, L. mexicana",[6]; [18],-0.64%
same,initial hit against T. brucei,[1]; 2 μM,initial hits
same,inhibition of growth at 2 µM,[1],> 50%
same,"mean % growth, T. b. brucei",[1]; [18],14.7%
same,CC50,[9],1500 nM
same,EC50,"T. brucei; read-out: T. brucei EC50, bloodstream form",1600 nM
same,CC50,HepG2 cells [3]; read-out: HepG2 CC50,4200 nM
same,activity at 2 µM,[4]; [17],66.5%
same,"mean % growth, T. evansi",[5]; [18],79.8%
COc1cc(C[C@H]2C(=O)OC[C@@H]2Cc2ccc(OC)c(OC)c2)ccc1O [arctigenin],antiproliferative activity against HepG2 cells,HepG2 cells [10],potent antiproliferative activity
O=C1C(O)=C([C@H]2CC[C@H](c3ccc(Cl)cc3)CC2)C(=O)c2ccccc21 [atovaquone],rate of kill of control antimalarials,P. falciparum Dd2Luc [11],slow killing compound with 48 h lag in action
C[C@H]1[C@@H](O)O[C@@H]2O[C@@]3(C)CC[C@H]4[C@H](C)CC[C@@H]1[C@@]24OO3 [dihydroartemisinin],rate of kill of control antimalarials,P. falciparum Dd2Luc [11],rapid initial rate of kill with no lag in action
CC(C)c1cc(CC[C@@H]2C(=O)CCCC2(C)C)c(O)cc1O [leriifoliol],activity against P. falciparum,[12],submicromolar activity
same,activity against T. b. rhodesiense,T. b. rhodesiense,micromolar activity
